Measurements from ChEMBL document CHEMBL1821627, “Medicinal chemistry as a conduit for the modulation of quorum sensing” (J Med Chem, 2010).
Where a SMILES comes first, the peptide text is derived from it. Bridges are numbered along the chain shown (N, C = ends). [ ]: non-standard residue; d: D form. NMeF = CN[C@@H](Cc1ccccc1)C(=O)O; NMeL = CN[C@@H](CC(C)C)C(=O)O; Mpa = O=C(O)CCS

Legend:
[1] = molecular target: T1, Transcriptional activator protein LasR (Pseudomonas aeruginosa (strain ATCC 15692 / PAO1 / 1C / PRS 101 / LMG12228), UniProt P25084); assay: Agonist activity at Pseudomonas aeruginosa LasR cognate receptor expressed in Escherichia coli harboring pKDT17 assessed as activation of lasB expression by LacZ reporter gene assay; assay type: functional
T1 sequence (P25084 whole entry): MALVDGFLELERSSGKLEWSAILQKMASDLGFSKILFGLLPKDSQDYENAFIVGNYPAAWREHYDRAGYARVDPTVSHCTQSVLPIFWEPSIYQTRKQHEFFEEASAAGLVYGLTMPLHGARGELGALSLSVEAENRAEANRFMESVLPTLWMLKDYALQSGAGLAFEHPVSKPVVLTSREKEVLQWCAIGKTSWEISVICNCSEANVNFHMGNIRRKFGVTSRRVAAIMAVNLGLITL

[2] = Inhibition of quorum sensing regulated bioluminescence in Vibrio harveyi
[3] = Inhibition of quorum sensing Salmonella Typhimurium by beta-galactosidase transcription assay in presence of 50 uM DPD; design: species or system Salmonella enterica subsp. enterica serovar Typhimurium
[4] = molecular target: T1, Transcriptional activator protein LasR; assay: Antagonist activity at Pseudomonas aeruginosa LasR receptor expressed in Escherichia coli in presence of 7.5 nM natural auto-inducer 3-oxo-C12-HSL; assay type: functional
[5] = molecular target: T2, Autoinducer 1 sensor kinase/phosphatase LuxN (Vibrio harveyi, UniProt P0C5S6); assay: Inhibition of LuxN-dependent bioluminescence in Vibrio harveyi
T2 sequence (P0C5S6 whole entry): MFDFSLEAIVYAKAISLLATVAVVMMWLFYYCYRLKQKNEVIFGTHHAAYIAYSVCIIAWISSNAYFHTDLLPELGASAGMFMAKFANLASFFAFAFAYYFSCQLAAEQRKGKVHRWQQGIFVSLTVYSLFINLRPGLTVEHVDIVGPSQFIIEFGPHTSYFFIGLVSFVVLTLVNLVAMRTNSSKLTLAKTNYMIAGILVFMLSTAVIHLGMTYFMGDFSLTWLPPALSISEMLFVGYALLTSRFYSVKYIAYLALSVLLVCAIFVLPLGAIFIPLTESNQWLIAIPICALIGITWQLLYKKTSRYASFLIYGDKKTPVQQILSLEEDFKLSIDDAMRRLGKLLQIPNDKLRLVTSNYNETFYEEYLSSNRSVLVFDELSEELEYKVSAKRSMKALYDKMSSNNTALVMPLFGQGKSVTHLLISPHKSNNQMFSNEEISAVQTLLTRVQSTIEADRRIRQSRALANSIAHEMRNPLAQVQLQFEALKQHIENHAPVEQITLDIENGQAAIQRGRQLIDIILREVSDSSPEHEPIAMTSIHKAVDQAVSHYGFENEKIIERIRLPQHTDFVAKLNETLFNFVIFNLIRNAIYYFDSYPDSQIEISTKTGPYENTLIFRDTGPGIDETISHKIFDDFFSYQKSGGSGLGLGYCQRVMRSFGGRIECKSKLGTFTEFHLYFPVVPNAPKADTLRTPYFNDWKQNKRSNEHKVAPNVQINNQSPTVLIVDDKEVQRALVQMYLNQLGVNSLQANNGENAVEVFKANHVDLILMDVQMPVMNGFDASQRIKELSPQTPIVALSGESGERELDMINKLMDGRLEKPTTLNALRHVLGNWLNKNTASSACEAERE

[6] = molecular target: T3, Transcriptional activator protein LuxR (Aliivibrio fischeri, UniProt P12746); assay: Antagonist activity at Vibrio fischeri luxR receptor in presence of 5 uM 3-oxo-C6-HSL; assay type: functional
T3 sequence (P12746 whole entry): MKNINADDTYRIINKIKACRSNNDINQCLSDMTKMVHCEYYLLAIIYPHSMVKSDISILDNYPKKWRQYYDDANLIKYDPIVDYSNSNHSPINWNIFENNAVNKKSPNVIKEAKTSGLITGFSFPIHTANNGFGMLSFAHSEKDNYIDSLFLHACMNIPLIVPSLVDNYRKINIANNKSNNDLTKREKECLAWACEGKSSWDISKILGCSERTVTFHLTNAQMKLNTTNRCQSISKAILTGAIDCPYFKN

[7] = tested on: Salmonella enterica subsp. enterica serovar Typhimurium; assay: Ratio of compound IC50 to DPD IC50 for Salmonella Typhimurium quorum sensing system
[8] = Inhibition of Staphylococcus aureus Quorum sensing system AgrC-I activation after 60 to 90 minutes by beta-lactamase reporter assay
[9] = Inhibition of Staphylococcus aureus Quorum sensing system AgrC-II activation after 60 to 90 minutes by beta-lactamase reporter assay
Vibrio harveyi = assay: Induction of quorum sensing regulated bioluminescence in Vibrio harveyi by luminescence assay
[10] = Induction of quorum sensing activity in Pseudomonas aeruginosa assessed as maximal induction of LasR-dependent yellow fluorescent protein emission by luminescence assay
[11] = tested on: Chromobacterium violaceum; assay: In vivo inhibition of violacein production in Chromobacterium violaceum; assay type: functional, organism-based

CCCCCCCC(=O)CC(=O)N[C@H]1CCOC1=O
EC50 [1]: 15 nM

OB(O)c1ccc(OCc2ccccc2)cc1
IC50 [2]: 4 µM

Cc1ccc(B(O)O)cc1F
IC50 [2]: 9 µM

CCOC(=O)CS(=O)(=O)c1ccc(-c2cncc3ccccc23)cc1
IC50 [2]: > 400 µM

N#Cc1ccc(B(O)O)cc1
IC50 [2]: 6 µM

O=C(CCc1ccccc1)C(=O)[C@@H](O)CO
IC50 [3]: > 50 µM

CCCCCCCCCC(=O)CC(=O)N[C@H]1CCSC1=O
EC50 [1]: 7 nM

Oc1cccc(O)c1O [PYROGALLOL]
IC50 [2]: 2 µM

CCCCCCCCCC(O)CC(=O)N[C@H]1CCOC1=O (stereo partly specified)
EC50 [1]: 54 nM

CCOC(=O)CS(=O)(=O)c1ccc(-c2ccc3c(c2)OCCO3)cc1
IC50 [2]: 158 µM

O=C(Cc1ccc(I)cc1)N[C@H]1CCOC1=O
IC50 [4]: 1720 nM

CC(=O)N1CCc2ccc(S(=O)(=O)NC(CC(C)C)C(=O)NCc3ccc(Cl)cc3)cc21 (stereo unspecified)
IC50 [5]: 2700 nM

O=c1ccc2ccc(O)c(O)c2o1 [DAPHNETIN]
IC50 [2]: 12 µM

CCCCCCCC(=O)N[C@H]1CCOC1=O
IC50 [6]: 770 nM

CCCCC/C=C/CCC(=O)CC(=O)N[C@H]1CCOC1=O
EC50 [1]: 10 nM

CCCCC(=O)C(=O)[C@@H](O)CO
Ratio IC50 [7]: < 10 | IC50 [3]: 5.04 µM

CCCCCCCCCCCC(=O)N[C@H]1CCOC1=O
EC50 [1]: 33 nM

CC(=O)N[C@H]1CSC(=O)[C@H](Cc2ccccc2)N(C)C(=O)[C@H](CC(C)C)NC(=O)[C@H](CO)NC(=O)[C@H](CO)NC1=O (Ac-CSSL[NMeF]; thioester 1-C)
IC50 [8]: Not Active | IC50 [9]: Not Active

O=C1[C@@H](O)COC1(O)C(F)(F)F (stereo partly specified)
EC50 (Vibrio harveyi): 30 µM

CC(=O)N[C@H]1CSC(=O)[C@H](Cc2ccccc2)NC(=O)[C@H](CC(C)C)N(C)C(=O)[C@H](CO)NC(=O)[C@H](CO)NC1=O (Ac-CSS[NMeL]F; thioester 1-C)
IC50 [8]: Not Active | IC50 [9]: Not Active

Oc1ccccc1O [CATECHOL]
IC50 [2]: 59 µM

CCOC(=S)CS(=O)(=O)c1ccc(-c2ccccc2)cc1
IC50 [2]: 5.7 µM

COC(=O)c1ccc(B(O)O)cc1
IC50 [2]: 5 µM

CCCC(=O)C(=O)[C@@H](O)CO
Ratio IC50 [7]: < 10 | IC50 [3]: 5.3 µM

CC[C@H](C)[C@@H]1NC(=O)[C@H](Cc2ccccc2)NC(=O)[C@H](C)NC(=O)[C@@H](NC(=O)[C@@H](NC(=O)[C@H](CO)NC(=O)[C@@H](N)Cc2ccc(O)cc2)[C@@H](C)O)CSC(=O)[C@H](CSC)NC1=O (H-YSTCAFIC(Me); thioester 4-C)
IC50 ([8]; read-out: IC50): 21 nM | IC50 ([9]; read-out: IC50): 4 nM

COc1ccc(CNC(=O)C(NS(=O)(=O)c2ccc3nc(C)sc3c2)C(C)C)cc1 (stereo unspecified)
IC50 [5]: 2900 nM

O=C(Oc1c(Br)cc(Br)cc1CNC(=O)c1ccccc1[N+](=O)[O-])c1ccccc1Cl
EC50 [10]: 14 nM

CCN(CC)C(=S)CS(=O)(=O)c1cccs1
IC50 [2]: 138 µM

O=C(CCCOc1ccc(Cl)cc1)NC1CCOC1=O (stereo unspecified)
IC50 [11]: 295 nM

NC(=S)CS(=O)(=O)c1cccs1
IC50 [2]: 35 µM

O=C(Cc1ccc(C(F)(F)F)cc1)N[C@H]1CCOC1=O
IC50 [6]: 610 nM

CC(C)C[C@@H]1NC(=O)[C@H](CO)NC(=O)[C@H](CO)NC(=O)CCSC(=O)[C@H](Cc2ccccc2)NC1=O ([Mpa]SSLF; thioester 1-C)
IC50 ([8]; read-out: IC50): 1680 nM | IC50 ([9]; read-out: IC50): 47300 nM

CC(=O)N[C@H]1CSC(=O)[C@H](Cc2ccccc2)NC(=O)[C@H](CC(C)C)NC(=O)CNC(=O)[C@H](CO)NC1=O (Ac-CSGLF; thioester 1-C)
IC50 ([8]; read-out: IC50): 40 nM | IC50 ([9]; read-out: IC50): 194 nM

CC(=O)C(=O)[C@@H](O)CO
EC50 (Vibrio harveyi): 3 µM
